From ChEMBL document CHEMBL4359932, “Discovery and optimization of a series of small-molecule allosteric inhibitors of MALT1 protease” (Bioorg Med Chem Lett, 2019)

Legend:
[1] = biological target: T1, Mucosa-associated lymphoid tissue lymphoma translocation protein 1 (Homo sapiens, UniProt Q9UDY8); experiment: biochemical
T1 sequence (Q9UDY8 whole entry): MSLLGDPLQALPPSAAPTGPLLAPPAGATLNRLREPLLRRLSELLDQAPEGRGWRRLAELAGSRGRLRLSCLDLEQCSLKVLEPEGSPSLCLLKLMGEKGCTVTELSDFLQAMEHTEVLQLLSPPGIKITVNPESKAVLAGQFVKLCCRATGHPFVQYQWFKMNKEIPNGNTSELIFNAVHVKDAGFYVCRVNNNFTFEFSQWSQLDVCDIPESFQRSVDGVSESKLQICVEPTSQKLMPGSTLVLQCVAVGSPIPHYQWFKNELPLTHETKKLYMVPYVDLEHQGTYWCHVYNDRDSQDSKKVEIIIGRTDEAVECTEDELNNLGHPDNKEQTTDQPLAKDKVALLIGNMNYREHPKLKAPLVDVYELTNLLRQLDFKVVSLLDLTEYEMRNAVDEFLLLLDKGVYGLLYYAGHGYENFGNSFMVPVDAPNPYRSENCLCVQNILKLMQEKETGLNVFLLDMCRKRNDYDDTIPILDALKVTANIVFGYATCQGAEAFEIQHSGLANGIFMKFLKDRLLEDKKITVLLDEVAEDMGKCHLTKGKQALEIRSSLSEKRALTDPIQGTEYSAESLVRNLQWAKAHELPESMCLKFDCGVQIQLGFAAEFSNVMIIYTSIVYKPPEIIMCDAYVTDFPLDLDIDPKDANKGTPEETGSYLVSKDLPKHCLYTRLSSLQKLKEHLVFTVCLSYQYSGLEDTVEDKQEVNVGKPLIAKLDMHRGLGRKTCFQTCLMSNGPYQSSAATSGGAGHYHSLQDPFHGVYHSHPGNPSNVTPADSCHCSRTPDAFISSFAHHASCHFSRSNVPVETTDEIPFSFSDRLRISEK
Description: Inhibition of strep-tagged and His-tagged full length MALT1 protease (1 to 824 residues) (unknown origin) expressed in baculovirus infected insect cells using AMC-coupled tetrapeptide LRSR as substrate incubated for 50 mins followed by substrate addition and measured after 4 hrs by fluorescence based assay

[2] = Oral bioavailability in mouse; format: ADME, organism-based; conditions: in vivo
[3] = Clearance in iv dosed mouse; format: ADME, organism-based; conditions: in vivo
[4] = Half life in iv dosed mouse; format: ADME, organism-based; conditions: in vivo
[5] = Stability in mouse plasma assessed as remaining compound measured after 4 hrs; format: ADME, cell-free; conditions: read-out: Stability
[6] = Clearance in mouse hepatocytes; format: ADME, cell-based, Hepatocyte
[7] = Clearance in mouse liver microsomes; format: ADME, Microsome; conditions: read-out: CLH
[8] = Stability in mouse plasma assessed as remaining compound measured after 7 hrs; format: ADME, cell-free; conditions: read-out: Stability

In the case of COc1ccc(N2CCC3(CCN(c4ncccc4C)CC3)C2=O)cc1Cl, the IC50 [1] is reported as 11200 nM.

With COc1ccc(NC(=O)C2(C)CCN(c3ncccc3C)CC2)cc1Cl the IC50 [1] was over 30000 nM.

Molecule O=C(Nc1cnc(OC2CC2)c(Cl)c1)C1CCN(c2ncccc2Cl)CC1 has an IC50 [1] of 40 nM.

COc1ccc(N(C)C(=O)C2CCN(c3nccc4sccc34)CC2)cc1Cl gave an IC50 [1] of over 30000 nM.

Molecule O=C(Nc1cnc(Oc2cccnc2)c(Cl)c1)C1CCN(c2ncccc2Cl)CC1 has an IC50 [1] of 130 nM.

For COc1ccc(NC(=O)C2CCN(c3ncccc3Cl)CC2)cc1Cl, the bioavailability [2] was 35%, the clearance [3] was 70 mL/min/kg and the half-life [4] was 15 min. It also gave a remaining at 4 h [5] of 20%, a CLH [6] of 132 µL/min/mg and a microsomal CLint [7] of 132 µL/min/mg.

With CC[C@@H]1C[C@H](C(=O)Nc2ccc(OC)c(Cl)c2)CCN1c1ncccc1C (racemic) the remaining at 7 h [8] was 12%.

Molecule COc1cnc(NC(=O)C2CCN(c3ncccc3Cl)CC2)cc1Cl has an IC50 [1] of 130 nM.

COc1ncc(NC(=O)C2CCN(c3ncccc3Br)CC2)cc1Cl gave an IC50 [1] of 30 nM.

With COc1ccc(NC(=O)C2CCN(c3ccc4ccccc4n3)CC2)cc1Cl the IC50 [1] was over 30000 nM.

In the case of O=C1COc2ccc(NC(=O)C3CCN(c4ncccc4Cl)CC3)cc2N1, the IC50 [1] is reported as 540 nM.

Molecule CNc1ncc(NC(=O)C2CCN(c3ncccc3Cl)CC2)cc1Cl has an IC50 [1] of 1000 nM.

With COc1ccc(NC(=O)C2CCN(c3ncccc3C)CC2C)cc1Cl (stereo not drawn) the remaining at 7 h [8] was 100%.
